Columns and labels:
panel of 442 kinases [1] = biological target: T1, panel of 442 kinases (Homo sapiens, UniProt P49759); assay type: binding; conditions: Compound Concentration 10 µM
T1 construct: purchased KINOMEscan
Text: (§1) We assessed the selectivity of members of this scaffold using the KINOMEscan methodology across a near comprehensive panel of 442 kinases [[18,27]].

panel of 442 kinases [2] = biological target: T2, panel of 442 kinases (Homo sapiens, UniProt Q6ZN16); assay type: binding; conditions: Compound Concentration 10 µM
T2 construct: purchased KINOMEscan
T2 sequence (Q6ZN16 1-1313): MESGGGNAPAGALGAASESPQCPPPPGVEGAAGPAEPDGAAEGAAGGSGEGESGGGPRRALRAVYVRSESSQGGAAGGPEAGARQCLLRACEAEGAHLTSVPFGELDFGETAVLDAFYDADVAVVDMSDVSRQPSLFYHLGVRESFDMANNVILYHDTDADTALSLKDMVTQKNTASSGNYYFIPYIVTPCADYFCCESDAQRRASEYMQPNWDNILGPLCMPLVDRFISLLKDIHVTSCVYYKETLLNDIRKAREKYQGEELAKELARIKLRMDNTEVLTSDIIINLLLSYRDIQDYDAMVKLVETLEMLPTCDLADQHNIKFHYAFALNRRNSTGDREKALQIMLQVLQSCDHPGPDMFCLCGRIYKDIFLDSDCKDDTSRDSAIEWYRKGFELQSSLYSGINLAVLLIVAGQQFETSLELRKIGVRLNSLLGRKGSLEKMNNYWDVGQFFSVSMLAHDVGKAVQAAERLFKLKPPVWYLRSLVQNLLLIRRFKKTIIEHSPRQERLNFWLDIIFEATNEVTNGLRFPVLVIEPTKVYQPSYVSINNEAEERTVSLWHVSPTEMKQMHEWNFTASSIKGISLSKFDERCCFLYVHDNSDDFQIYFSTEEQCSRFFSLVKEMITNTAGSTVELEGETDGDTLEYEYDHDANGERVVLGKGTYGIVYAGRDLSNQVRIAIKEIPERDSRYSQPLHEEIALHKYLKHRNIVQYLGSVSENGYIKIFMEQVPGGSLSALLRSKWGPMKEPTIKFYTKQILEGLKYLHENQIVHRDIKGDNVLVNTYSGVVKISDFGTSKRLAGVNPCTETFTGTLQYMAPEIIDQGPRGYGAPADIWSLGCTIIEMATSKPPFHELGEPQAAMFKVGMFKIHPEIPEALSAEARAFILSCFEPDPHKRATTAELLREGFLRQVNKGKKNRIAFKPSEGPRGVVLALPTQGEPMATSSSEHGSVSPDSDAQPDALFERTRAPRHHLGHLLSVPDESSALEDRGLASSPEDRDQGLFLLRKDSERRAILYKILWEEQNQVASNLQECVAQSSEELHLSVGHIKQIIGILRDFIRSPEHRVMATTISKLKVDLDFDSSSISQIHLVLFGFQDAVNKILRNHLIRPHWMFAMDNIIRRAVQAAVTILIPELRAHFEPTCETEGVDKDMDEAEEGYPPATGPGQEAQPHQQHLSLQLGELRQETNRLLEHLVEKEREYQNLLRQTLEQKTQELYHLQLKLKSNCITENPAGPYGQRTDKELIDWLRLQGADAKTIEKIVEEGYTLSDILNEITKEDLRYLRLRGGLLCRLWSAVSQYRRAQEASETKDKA
Text: as §1

T1 sequence (P49759 whole entry): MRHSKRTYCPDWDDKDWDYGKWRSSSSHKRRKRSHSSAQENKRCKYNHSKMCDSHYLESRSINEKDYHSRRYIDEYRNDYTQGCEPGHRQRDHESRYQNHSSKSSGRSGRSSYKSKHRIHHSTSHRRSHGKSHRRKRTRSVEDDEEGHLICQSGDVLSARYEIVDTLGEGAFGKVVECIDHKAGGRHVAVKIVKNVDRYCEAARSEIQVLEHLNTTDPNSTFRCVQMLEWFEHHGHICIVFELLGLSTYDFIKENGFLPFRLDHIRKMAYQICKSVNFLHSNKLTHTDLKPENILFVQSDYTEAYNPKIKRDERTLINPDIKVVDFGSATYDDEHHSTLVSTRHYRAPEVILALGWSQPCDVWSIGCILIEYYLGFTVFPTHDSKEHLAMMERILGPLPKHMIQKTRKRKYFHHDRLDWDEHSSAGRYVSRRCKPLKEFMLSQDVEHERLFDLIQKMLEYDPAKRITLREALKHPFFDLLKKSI

SMILES | KINOMEscan: CLK1 (panel of 442 kinases [1]) | KINOMEscan: MAP3K15 (panel of 442 kinases [2])
CCOc1cc(C(=O)N2CCC(N3CCN(C)CC3)CC2)ccc1Nc1ncc2c(n1)N(C1CCCC1)c1ccccc1C(=O)N2C [Compound 26] | 100 | 95
COc1cc(C(=O)N2CCC(N3CCN(C)CC3)CC2)ccc1Nc1ncc2c(n1)N(C1CCCC1)c1ccccc1C(=O)N2C [Compound 25, 11-cyclopentyl-2-((2-methoxy-4-(4-(4-methylpiperazin-1-yl)piperidine-1-carbonyl)phenyl)amino)-5-methyl-5H-benzo[e]pyrimido[5,4-b][1,4]diazepin-6(11H)-one] | 100 | 88
COc1cc(C(=O)N2CCC(N3CCN(C)CC3)CC2)ccc1Nc1ncc2c(n1)N1CCc3cccc(c31)C(=O)N2C [Compound 24] | 11 | 77
COc1cc(C(=O)N2CCC(N3CCN(C)CC3)CC2)ccc1Nc1ncc2c(n1)N(C)c1ccccc1C(=O)N2C [15 (LRRK2-IN-1)] | 28 | 69

Source: article PMC3914206
